Assay results: ChEMBL document CHEMBL1139498, “Discovery of potent, orally available vanilloid receptor-1 antagonists. Structure-activity relationship of N-aryl cinnamides” (J Med Chem, 2005)

Legend:
[1] = biological target: T1, Transient receptor potential cation channel subfamily V member 1 (Homo sapiens, UniProt Q8NER1); assay: Inhibition of pH-induced calcium uptake by transient receptor potential vanilloid type 1 expressed in CHO cells; assay type: functional, cell-based
[2] = biological target: T1, Transient receptor potential cation channel subfamily V member 1; assay: Inhibition of capsaicin-induced calcium uptake by transient receptor potential vanilloid type 1 expressed in CHO cells; assay type: functional, cell-based
[3] = Area under concentration time curve from time 0 to infinity was determined in rat after intravenous administration of 2 mg/kg; assay type: ADME, organism-based; set-up: time infinity, dose 2 mg/kg, route intravenous; conditions: in vivo
[4] = Area under concentration time curve from time 0 to infinity was determined in rat after oral administration of 5 mg/kg; assay type: ADME, organism-based; set-up: time infinity, dose 5 mg/kg, route oral; conditions: in vivo
[5] = Steady state volume of distribution in rat after intravenous administration of 2 mg/kg; assay type: ADME, organism-based; set-up: dose 2 mg/kg, route intravenous; conditions: in vivo, read-out: Vss
[6] = Oral bioavailability in rat (dose 5 mg/kg); assay type: ADME, organism-based; conditions: in vivo
[7] = Peak plasma concentration in rat after oral administration of 5 mg/kg; assay type: ADME, organism-based; set-up: dose 5 mg/kg, route oral
[8] = Half life in rat after intravenous administration of 2 mg/kg; assay type: ADME, organism-based; set-up: dose 2 mg/kg, route intravenous; conditions: in vivo
[9] = Plasma clearance in rat after intravenous administration of 2 mg/kg; assay type: ADME, organism-based; set-up: dose 2 mg/kg, route intravenous
[10] = Maximum time required to attain Cmax in rat after oral administration of 5 mg/kg; assay type: ADME, organism-based; set-up: dose 5 mg/kg, route oral; conditions: in vivo
[11] = biological target: T1, Transient receptor potential cation channel subfamily V member 1; assay: Agonistic activity for transient receptor potential vanilloid type 1 expressed in CHO cells; assay type: functional, cell-based
[12] = Half life in rat after intravenous administration of 3 mg/kg; assay type: ADME, organism-based; set-up: dose 3 mg/kg, route intravenous; conditions: in vivo
[13] = Plasma clearance in rat after intravenous administration of 3 mg/kg; assay type: ADME, organism-based; set-up: dose 3 mg/kg, route intravenous
[14] = Steady state volume of distribution in rat after intravenous administration of 3 mg/kg; assay type: ADME, organism-based; set-up: dose 3 mg/kg, route intravenous; conditions: in vivo, read-out: Vss
[15] = Area under concentration time curve from time 0 to infinity was determined in rat after intravenous administration of 3 mg/kg; assay type: ADME, organism-based; set-up: time infinity, dose 3 mg/kg, route intravenous; conditions: in vivo

T1 sequence (Q8NER1 whole entry): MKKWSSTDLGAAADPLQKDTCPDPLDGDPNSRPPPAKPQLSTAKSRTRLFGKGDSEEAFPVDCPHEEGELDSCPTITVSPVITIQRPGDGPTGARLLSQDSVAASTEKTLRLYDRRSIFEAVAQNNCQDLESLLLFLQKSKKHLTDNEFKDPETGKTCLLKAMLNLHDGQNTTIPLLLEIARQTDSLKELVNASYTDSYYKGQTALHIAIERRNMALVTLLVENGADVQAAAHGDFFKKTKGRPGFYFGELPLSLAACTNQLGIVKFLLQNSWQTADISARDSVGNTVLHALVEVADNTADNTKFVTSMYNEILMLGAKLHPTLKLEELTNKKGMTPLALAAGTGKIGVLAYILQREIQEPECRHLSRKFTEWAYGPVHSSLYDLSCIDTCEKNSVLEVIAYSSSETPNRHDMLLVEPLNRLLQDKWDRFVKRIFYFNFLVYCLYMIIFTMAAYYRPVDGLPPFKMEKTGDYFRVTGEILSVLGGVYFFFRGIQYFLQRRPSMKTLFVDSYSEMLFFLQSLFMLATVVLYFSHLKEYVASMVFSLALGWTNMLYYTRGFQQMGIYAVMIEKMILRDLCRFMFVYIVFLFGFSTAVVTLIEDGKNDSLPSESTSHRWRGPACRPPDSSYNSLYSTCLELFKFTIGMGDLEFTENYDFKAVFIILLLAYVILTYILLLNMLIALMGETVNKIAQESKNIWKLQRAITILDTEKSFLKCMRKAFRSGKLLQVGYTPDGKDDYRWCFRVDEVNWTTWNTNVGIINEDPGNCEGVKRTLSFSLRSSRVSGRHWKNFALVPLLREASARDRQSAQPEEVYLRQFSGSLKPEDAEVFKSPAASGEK

IC50 [1] [nM] | IC50 [2] [nM] | SMILES | further results
960 | 61 | CC(C)(C)c1ccc(/C=C/C(=O)Nc2ccc3c(c2)CCCC3)cc1 | –
1 | 0.42 | O=C(/C=C/c1ccc(C(F)(F)F)nc1N1CCCCC1)Nc1ccc2cccnc2c1 | AUC [3]: 2100 ng·h/mL; AUC [4]: 2400 ng·h/mL; Vd [5]: 2.8 L/kg; F [6]: 17%; Cmax [7]: 320 ng/mL; half-life [8]: 2.9 h; CL ([9]; in vivo): 13 mL/min/kg; Tmax [10]: 2 h
440 | 190 | O=C(/C=C/c1ccc([N+](=O)[O-])cc1)Nc1ccc2c(c1)OCCO2 | –
1.3 | 1.9 | O=C(/C=C/c1ccc(C(F)(F)F)nc1N1CCOCC1)Nc1ccc2cccnc2c1 | AUC [3]: 2300 ng·h/mL; AUC(0-inf) [4]: 2600 ng·h/mL; Vd [5]: 1.1 L/kg; bioavailability [6]: 39%; Cmax [7]: 540 ng/mL; half-life [8]: 0.9 h; clearance ([9]; plasma): 15 mL/min/kg; Tmax [10]: 1.5 h
> 4000 | 6.5 | CC(C)(C)c1ccc(/C=C/C(=O)Nc2ccc3c(c2)NC(=O)CO3)cc1 | –
> 4000 | > 4000 | O=C(/C=C/c1ccc(O)cc1)Nc1ccc2c(c1)OCCO2 | –
2700 | 360 | CCCCc1ccc(/C=C/C(=O)Nc2ccc3c(c2)OCCO3)cc1 | –
> 4000 | 2700 | CC(C)(C)c1ccc(C(=CC(=O)Nc2ccc3c(c2)OCCO3)c2ccc(C(C)(C)C)cc2)cc1 | –
> 4000 | 270 | CC(C)(C)c1ccc(/C=C/C(=O)Nc2ccc3c(c2)OCC(=O)N3)cc1 | –
660 | 44 | CC(C)(C)c1ccc(/C(=C/C(=O)Nc2ccc3c(c2)OCCO3)c2ccncc2)cc1 | –
> 4000 | 1800 | CC(C)(C)c1ccc(C2CC2C(=O)Nc2ccc3c(c2)OCCO3)cc1 (centres undefined) | –
860 | 360 | CC(C)Cc1ccc(/C=C/C(=O)Nc2ccc3c(c2)OCCO3)cc1 | –
870 | 360 | Cc1nc(C(F)(F)F)ccc1/C=C/C(=O)Nc1ccc2c(c1)OCCO2 | –
1100 | 210 | Cc1ccc(/C=C/C(=O)Nc2ccc3c(c2)OCCO3)cc1 | –
220 | 170 | CCc1ccc(/C=C/C(=O)Nc2ccc3c(c2)OCCO3)cc1 | –
> 4000 | > 4000 | CC(C)(C)c1ccc(/C(=C/C(=O)Nc2ccc3c(c2)OCCO3)CCC(=O)O)cc1 | –
320 | 250 | O=C(/C=C/c1ccc(Cl)cc1)Nc1ccc2c(c1)OCCO2 | –
660 | 150 | CC(C)(C)c1ccc(CCC(=O)Nc2ccc3c(c2)OCCO3)cc1 | –
94 | 16 | CC(C)C/C(=C\C(=O)Nc1ccc2c(c1)OCCO2)c1ccc(C(C)(C)C)cc1 | –
> 4000 | 1000 | O=C(/C=C/c1ccc(F)cc1)Nc1ccc2c(c1)OCCO2 | –
370 | 110 | O=C(/C=C/c1ccc(Br)cc1)Nc1ccc2c(c1)OCCO2 | –
3200 | – | CC(C)(C)c1ccc(/C=C/C(=O)Oc2ccc3c(c2)OCCO3)cc1 | –

IC50 [1] [nM] | IC50 [2] [nM] | SMILES | further results
> 4000 | 620 | CC(C)(C)c1cccc(/C=C/C(=O)Nc2ccc3c(c2)OCCO3)c1 | –
> 4000 | > 4000 | O=C(/C=C/c1ccccc1)Nc1ccc2c(c1)OCCO2 | –
120 | 20 | CC(C)(C)c1ccc(/C(=C/C(=O)Nc2ccc3c(c2)OCCO3)c2ccccc2)cc1 | –
800 | 210 | CC/C(=C\c1ccc(C(C)(C)C)cc1)C(=O)Nc1ccc2c(c1)OCCO2 | –
2900 | 500 | CC(C)(C)c1ccc(/C=C/C(=O)Nc2ccc3c(c2)OCCO3)nc1 | –
> 4000 | 550 | COc1ccccc1NC(=O)/C=C/c1ccc(C(C)(C)C)cc1 | –
510 | 78 | CC(C)(C)c1ccc(/C(=C/C(=O)Nc2ccc3c(c2)OCCO3)c2cccnc2)cc1 | –
> 4000 | 3900 | CN(C)CCC/C(=C\C(=O)Nc1ccc2c(c1)OCCO2)c1ccc(C(C)(C)C)cc1 | –
1290 | 870 | O=C(/C=C/c1ccc(C(F)(F)F)nc1)Nc1ccc2c(c1)OCCO2 | –
> 4000 | 21 | COc1cccc(NC(=O)/C=C/c2ccc(C(C)(C)C)cc2)c1 | –
> 4000 | > 4000 | CC(C)(C)c1ccc(/C=C/C(=O)Nc2ccc3c(c2)OCCO3)c(C(=O)O)c1 | –
2.02 | – | CC(C)(C)c1ccc(/C=C/C(=O)Nc2ccc3cccnc3c2)cc1 | –
> 4000 | 140 | COc1ccc(NC(=O)/C=C/c2ccc(C(C)(C)C)cc2)cc1 | –
> 4000 | 1800 | COc1ccc(/C=C/C(=O)Nc2ccc3c(c2)OCCO3)cc1 | –
54 | 27 | O=C(/C=C/c1ccc(C(F)(F)F)nc1N1CCCCC1)Nc1ccc2c(c1)OCCO2 | –
160 | 36 | CC(C)(C)c1ccc(/C=C/C(=O)Nc2ccc3c(c2)NCCC3)cc1 | –
470 | 60 | CC(C)(C)c1ccc(/C=C/C(=O)Nc2ccc3c(c2)OCCO3)c(Br)c1 | –
71 | – | CC(C)(C)c1ccc(/C=C/C(=O)Nc2ccc3c(c2)NC(=O)CC3)cc1 | –
110 | 14 | CC(C)(C)c1ccc(/C(=C/C(=O)Nc2ccc3c(c2)OCCO3)Cc2ccccc2)cc1 | –
> 4000 | 170 | COc1ccc(NC(=O)/C=C/c2ccc(C(C)(C)C)cc2)cc1OC | –
26 | 15 | CCOC(=O)c1cc(C(C)(C)C)ccc1/C=C/C(=O)Nc1ccc2c(c1)OCCO2 | –
1400 | 280 | CC(C)(C)c1ccc(/C=C/C(=S)Nc2ccc3c(c2)OCCO3)cc1 | –

IC50 [1] [nM] | IC50 [2] [nM] | SMILES | further results
> 4000 | > 4000 | CN(C(=O)/C=C/c1ccc(C(C)(C)C)cc1)c1ccc2c(c1)OCCO2 | –
> 4000 | > 4000 | CC(C)(C)c1ccc(/C=C/CNc2ccc3c(c2)OCCO3)cc1 | –
430 | – | C/C(=C\C(=O)Nc1ccc2c(c1)OCCO2)c1ccc(C(C)(C)C)cc1 | –
> 4000 | – | COc1ccc(NC(=O)/C=C/c2ccc(C(C)(C)C)cc2)cc1O | –
> 4000 | 570 | CC(C)(C)c1ccc(/C=C/C(=O)Nc2ccc3c(c2)OCO3)cc1 | –
> 4000 | 110 | CC(C)(C)c1ccc(/C=C/C(=O)Nc2ccc3c(c2)NCCO3)cc1 | –
2400 | 100 | CC(C)(C)c1ccc(/C=C/C(=O)Nc2ccc3c(c2)OCCO3)cn1 | –
> 4000 | > 4000 | O=C(/C=C/c1ccc(-c2ccccc2)cc1)Nc1ccc2c(c1)OCCO2 | –
100 | 46 | O=C(/C=C/c1ccc(C(F)(F)F)cc1)Nc1ccc2c(c1)OCCO2 | –
57 | 16 | CC(C)(C)c1ccc(/C=C/C(=O)Nc2ccc3c(c2)OCCN3)cc1 | –
180 | 25 | CC(C)(C)c1ccc(/C(=C/C(=O)Nc2ccc3c(c2)OCCO3)c2ccc(C(F)(F)F)cc2)cc1 | –
– | – | COc1cc(NC(=O)/C=C/c2ccc(C(C)(C)C)cc2)ccc1O | EC50 [11]: 440 nM
> 4000 | > 4000 | CC(C)(C)c1ccc(/C=C(/C(=O)Nc2ccc3c(c2)OCCO3)c2ccccc2)cc1 | –
600 | – | C/C(=C\c1ccc(C(C)(C)C)cc1)C(=O)Nc1ccc2c(c1)OCCO2 | –
290 | 36 | CCOC(=O)CC/C(=C\C(=O)Nc1ccc2c(c1)OCCO2)c1ccc(C(C)(C)C)cc1 | –
> 4000 | – | CC(C)(C)c1ccc(/C=C/C(=O)Nc2ccccc2)cc1 | –
82 | 55 | CC(C)c1ccc(/C=C/C(=O)Nc2ccc3c(c2)OCCO3)cc1 | –
40 | 15 | O=C(/C=C/c1ccc(C(F)(F)F)nc1N1CCOCC1)Nc1ccc2c(c1)OCCO2 | –
150 | 17 | CC(C)(C)c1ccc(/C=C/C(=O)Nc2ccc3c(c2)OCCO3)cc1 (stereo in doubt; 1) | half-life [12]: 1.1 h; AUC(0-inf) [4]: 24 ng·h/mL; bioavailability [6]: 3%; Cmax [7]: 25 ng/mL; Tmax [10]: 0.5 h; clearance [13]: 73.3 mL/min/kg; Vd [14]: 2.1 L/kg; AUC [15]: 680 ng·h/mL
3200 | – | CC(C)(C)c1ccc(/C=C/C(=O)Nc2ccc3c(c2)OCCO3)cc1 (stereo in doubt; 34) | –
– | 420 | Oc1cc2c(cc1O)CN(C(=S)NCCc1ccc(Cl)cc1)CCC2 [CAPSAZEPINE] | –
